Paper PMC6691788, “Design and synthesis of phthalazine-based compounds as potent anticancer agents with potential antiangiogenic activity via VEGFR-2 inhibition” (Journal of Enzyme Inhibition and Medicinal Chemistry, 2019)

Experiments:
[1] = molecular target: T1, VEGFR-2 tyrosine kinase (Homo sapiens, UniProt P35968); assay: In vitro VEGFR-2 tyrosine kinase assay (BPS Bioscience); type: biochemical; conditions: read-out: VEGFR-2 % inhibition; 10 μM concentration
T1 construct: purchased BPS Bioscience 40301
How it was run: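 For IC50, ADP formation after a 30-min 30 °C reaction was detected by ADP-Glo luminescence in duplicate, blank-subtracted and fitted as log inhibitor versus normalised response. The 10 µM single-dose test instead measured remaining ATP (Kinase-Glo Plus) after 40 min at 30 °C with poly(Glu,Tyr) substrate, 10 μM ATP, pH 7.4, 1% DMSO.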

[2] = tested on: SW-620; assay: NCI 60 cell panel SRB screen; type: cell-based; conditions: Homo sapiens
[3] = tested on: NCI/ADR-RES; assay: NCI 60 cell panel SRB screen; type: cell-based; conditions: Homo sapiens
[4] = tested on: SN12C; assay: NCI 60 cell panel SRB screen; type: cell-based; conditions: Homo sapiens
[5] = tested on: MOLT-4; assay: NCI 60 cell panel SRB screen; type: cell-based; conditions: Homo sapiens
[6] = tested on: SF-268; assay: NCI 60 cell panel SRB screen; type: cell-based; conditions: Homo sapiens
[7] = tested on: MDA-MB 231/ATCC; assay: NCI 60 cell panel SRB screen; type: cell-based; conditions: Homo sapiens
[8] = tested on: A549/ATCC; assay: NCI 60 cell panel SRB screen; type: cell-based; conditions: Homo sapiens
[9] = tested on: HOP-92; assay: NCI 60 cell panel SRB screen; type: cell-based; conditions: Homo sapiens
[10] = tested on: HT29; assay: NCI 60 cell panel SRB screen; type: cell-based; conditions: Homo sapiens, HT-29
[11] = tested on: OVCAR-4; assay: NCI 60 cell panel SRB screen; type: cell-based; conditions: Homo sapiens
[12] = tested on: CAKI-1; assay: NCI 60 cell panel SRB screen; type: cell-based, human; conditions: Homo sapiens; CAKI-1, single dose 10 μM; read-out: percent cell growth promotion
[13] = tested on: A498; assay: NCI 60 cell panel SRB screen; type: cell-based; conditions: Homo sapiens
[14] = tested on: NCI-H322M; assay: NCI 60 cell panel SRB screen; type: cell-based; conditions: Homo sapiens
[15] = tested on: UACC-257; assay: NCI 60 cell panel SRB screen; type: cell-based; conditions: Homo sapiens
[16] = tested on: HOP-62; assay: NCI 60 cell panel SRB screen; type: cell-based; conditions: Homo sapiens
[17] = tested on: UO-31; assay: NCI 60 cell panel SRB screen; type: cell-based; conditions: Homo sapiens
[18] = tested on: OVCAR-8; assay: NCI 60 cell panel SRB screen; type: cell-based; conditions: Homo sapiens
[19] = tested on: SK-MEL-28; assay: NCI 60 cell panel SRB screen; type: cell-based; conditions: Homo sapiens
[20] = tested on: HS 578T; assay: NCI 60 cell panel SRB screen; type: cell-based; conditions: Homo sapiens
[21] = 5 log dose, 48 h, read-out: LC50 (the source's name)
[22] = single dose 10 μM, read-out: percent cell growth promotion

T1 sequence (P35968 20-1356): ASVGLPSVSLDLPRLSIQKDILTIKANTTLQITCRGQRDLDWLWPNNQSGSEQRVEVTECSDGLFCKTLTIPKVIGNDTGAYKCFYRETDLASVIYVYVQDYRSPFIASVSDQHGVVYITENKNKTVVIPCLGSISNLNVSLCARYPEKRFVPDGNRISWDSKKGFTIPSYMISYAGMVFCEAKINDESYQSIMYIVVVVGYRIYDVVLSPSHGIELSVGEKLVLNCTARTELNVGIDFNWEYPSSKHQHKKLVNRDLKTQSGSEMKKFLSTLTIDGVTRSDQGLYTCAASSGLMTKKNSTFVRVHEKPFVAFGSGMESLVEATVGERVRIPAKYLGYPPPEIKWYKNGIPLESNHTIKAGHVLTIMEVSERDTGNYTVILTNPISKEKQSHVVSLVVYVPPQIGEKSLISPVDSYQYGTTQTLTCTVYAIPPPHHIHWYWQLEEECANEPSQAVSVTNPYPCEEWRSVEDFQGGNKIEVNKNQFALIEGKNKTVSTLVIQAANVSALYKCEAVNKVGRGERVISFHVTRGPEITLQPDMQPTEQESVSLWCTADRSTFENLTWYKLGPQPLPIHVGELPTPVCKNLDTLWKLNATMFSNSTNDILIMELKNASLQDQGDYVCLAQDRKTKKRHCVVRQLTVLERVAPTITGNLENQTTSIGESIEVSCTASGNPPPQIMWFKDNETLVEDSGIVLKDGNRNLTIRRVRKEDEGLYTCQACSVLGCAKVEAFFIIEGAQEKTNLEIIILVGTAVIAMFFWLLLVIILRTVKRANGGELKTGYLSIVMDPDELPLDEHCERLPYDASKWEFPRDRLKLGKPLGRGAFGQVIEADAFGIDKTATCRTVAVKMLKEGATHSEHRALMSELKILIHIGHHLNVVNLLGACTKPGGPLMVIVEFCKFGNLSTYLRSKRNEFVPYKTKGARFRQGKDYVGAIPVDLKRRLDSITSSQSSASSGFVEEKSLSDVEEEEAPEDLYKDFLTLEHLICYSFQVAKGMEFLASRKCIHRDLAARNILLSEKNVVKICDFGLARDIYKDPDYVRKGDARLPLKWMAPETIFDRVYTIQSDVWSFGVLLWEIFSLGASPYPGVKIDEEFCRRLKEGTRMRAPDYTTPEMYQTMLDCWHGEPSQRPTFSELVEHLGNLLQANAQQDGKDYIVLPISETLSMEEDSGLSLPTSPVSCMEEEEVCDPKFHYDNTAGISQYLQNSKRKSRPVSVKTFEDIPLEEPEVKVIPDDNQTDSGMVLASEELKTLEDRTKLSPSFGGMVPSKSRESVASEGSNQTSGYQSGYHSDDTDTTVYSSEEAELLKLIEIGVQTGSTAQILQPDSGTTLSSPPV

**Q.** Which inhibition at 10 µM [1] does the source give for `Clc1ccc(Nc2nnc(CNc3ccccc3)c3ccccc23)cc1` [Compound 16a, N-(4-Chlorophenyl)-4-((phenylamino)methyl)phthalazin-1-amine] here?
**A.** 47%

**Q.** What about the GI50 ([2]; SW-620, 5 log dose) of the same compound?
**A.** 3.84 µM

**Q.** And the IC (TGI) ([2]; SW-620, 5 log dose)?
**A.** 11.1 µM

**Q.** And the CC50 ([2]; SW-620, 5 log dose, 48 h, read-out: LC50 (the source's name))?
**A.** > 25 µM

**Q.** And the activity at 10 µM ([2]; SW-620, single dose 10 μM, read-out: percent cell growth promotion)?
**A.** 30.8%

**Q.** And the GI50 ([3]; 5 log dose)?
**A.** 4.12 µM

**Q.** And the IC (TGI) ([3]; 5 log dose)?
**A.** 17 µM

**Q.** What about the CC50 [3, 21] of the same compound?
**A.** > 25 µM

**Q.** What about the activity at 10 µM [3, 22] of the same compound?
**A.** 18.8%

**Q.** What about the GI50 ([4]; 5 log dose) of the same compound?
**A.** 3.95 µM

**Q.** And the IC (TGI) ([4]; 5 log dose)?
**A.** 18.9 µM

**Q.** What about the CC50 [4, 21] of the same compound?
**A.** > 25 µM

**Q.** What about the activity at 10 µM [4, 22] of the same compound?
**A.** 28.9%

**Q.** What about the GI50 ([5]; MOLT-4, 5 log dose) of the same compound?
**A.** 1.71 µM

**Q.** What about the IC (TGI) ([5]; MOLT-4, 5 log dose) of the same compound?
**A.** 8.75 µM

**Q.** What about the CC50 ([5]; MOLT-4, 5 log dose, 48 h, read-out: LC50 (the source's name)) of the same compound?
**A.** > 25 µM

**Q.** What about the activity at 10 µM ([5]; MOLT-4, single dose 10 μM, read-out: percent cell growth promotion) of the same compound?
**A.** -9.21%

**Q.** And the GI50 ([6]; SF-268, 5 log dose)?
**A.** 3.28 µM

**Q.** What about the IC (TGI) ([6]; SF-268, 5 log dose) of the same compound?
**A.** 14.5 µM

**Q.** What about the CC50 ([6]; SF-268, 5 log dose, 48 h, read-out: LC50 (the source's name)) of the same compound?
**A.** > 25 µM

**Q.** And the activity at 10 µM ([6]; SF-268, single dose 10 μM, read-out: percent cell growth promotion)?
**A.** 20.9%

**Q.** What about the GI50 ([7]; MDA-MB-231) of the same compound?
**A.** 1.95 µM

**Q.** What about the IC (TGI) ([7]; MDA-MB-231, read-out: TGI) of the same compound?
**A.** 8.73 µM

**Q.** What about the activity at 10 µM ([7]; MDA-MB-231, read-out: percent cell growth promotion) of the same compound?
**A.** 19.9%

**Q.** What about the CC50 ([7]; MDA-MB-231, MDA-MDA 231/ATCC, 5 log dose, 48 h, read-out: LC50 (the source's name)) of the same compound?
**A.** > 25 µM

**Q.** What about the GI50 ([8]; 5 log dose) of the same compound?
**A.** 3.17 µM

**Q.** What about the IC (TGI) ([8]; 5 log dose) of the same compound?
**A.** 20 µM

**Q.** What about the LC50 (concentration killing 50% of cells) ([8]; 5 log dose, 48 h) of the same compound?
**A.** > 25 µM

**Q.** And the activity at 10 µM [8, 22]?
**A.** 20.3%

**Q.** And the GI50 ([9]; HOP-92, 5 log dose)?
**A.** 0.77 µM

**Q.** What about the IC (TGI) ([9]; HOP-92, 5 log dose) of the same compound?
**A.** 6.29 µM

**Q.** And the CC50 ([9]; HOP-92, 5 log dose, 48 h, read-out: LC50 (the source's name))?
**A.** > 25 µM

**Q.** And the activity at 10 µM ([9]; HOP-92, single dose 10 μM, read-out: percent cell growth promotion)?
**A.** -19.4%

**Q.** And the GI50 ([10]; HT29, 5 log dose)?
**A.** 1.46 µM

**Q.** And the IC (TGI) ([10]; HT29, 5 log dose)?
**A.** 6.36 µM

**Q.** And the CC50 ([10]; HT29, 5 log dose, 48 h, read-out: LC50 (the source's name))?
**A.** 21.2 µM

**Q.** And the activity at 10 µM ([10]; HT29, single dose 10 μM, read-out: percent cell growth promotion)?
**A.** 0.55%

**Q.** And the GI50 ([11]; OVCAR-4, 5 log dose)?
**A.** 3 µM

**Q.** And the IC (TGI) ([11]; OVCAR-4, 5 log dose)?
**A.** > 25 µM

**Q.** And the CC50 ([11]; OVCAR-4, 5 log dose, 48 h, read-out: LC50 (the source's name))?
**A.** > 25 µM

**Q.** What about the activity at 10 µM ([11]; OVCAR-4, single dose 10 μM, read-out: percent cell growth promotion) of the same compound?
**A.** 19.3%

**Q.** What about the activity at 10 µM [12] of the same compound?
**A.** 28.2%

**Q.** And the GI50 ([13]; A498, 5 log dose)?
**A.** 1.45 µM

**Q.** What about the IC (TGI) ([13]; A498, 5 log dose) of the same compound?
**A.** 6.6 µM

**Q.** And the CC50 ([13]; A498, 5 log dose, 48 h, read-out: LC50 (the source's name))?
**A.** 17.6 µM

**Q.** What about the activity at 10 µM ([13]; A498, single dose 10 μM, read-out: percent cell growth promotion) of the same compound?
**A.** 24.7%

**Q.** And the GI50 ([14]; 5 log dose)?
**A.** 3.54 µM

**Q.** What about the IC (TGI) ([14]; 5 log dose) of the same compound?
**A.** 18.3 µM

**Q.** And the CC50 [14, 21]?
**A.** > 25 µM

**Q.** And the activity at 10 µM [14, 22]?
**A.** 30.4%

**Q.** And the GI50 ([15]; UACC-257)?
**A.** 2.74 µM

**Q.** What about the IC (TGI) ([15]; UACC-257, read-out: TGI) of the same compound?
**A.** 6.87 µM

**Q.** And the activity at 10 µM ([15]; UACC-257, read-out: percent cell growth promotion)?
**A.** -6.49%

**Q.** What about the CC50 ([15]; UACC-257, 5 log dose, 48 h, read-out: LC50 (the source's name)) of the same compound?
**A.** 17.2 µM

**Q.** What about the GI50 ([16]; HOP-62, 5 log dose) of the same compound?
**A.** 2.86 µM

**Q.** And the IC (TGI) ([16]; HOP-62, 5 log dose)?
**A.** 8.84 µM

**Q.** And the CC50 ([16]; HOP-62, 5 log dose, 48 h, read-out: LC50 (the source's name))?
**A.** > 25 µM

**Q.** And the activity at 10 µM ([16]; HOP-62, single dose 10 μM, read-out: percent cell growth promotion)?
**A.** 27.4%

**Q.** What about the GI50 ([17]; UO-31, 5 log dose) of the same compound?
**A.** 1.36 µM

**Q.** And the IC (TGI) ([17]; UO-31, 5 log dose)?
**A.** 6.66 µM

**Q.** And the CC50 ([17]; UO-31, 5 log dose, 48 h, read-out: LC50 (the source's name))?
**A.** 23.8 µM

**Q.** And the activity at 10 µM ([17]; UO-31, single dose 10 μM, read-out: percent cell growth promotion)?
**A.** 1.91%

**Q.** What about the GI50 ([18]; OVCAR-8, 5 log dose) of the same compound?
**A.** 4.63 µM

**Q.** And the IC (TGI) ([18]; OVCAR-8, 5 log dose)?
**A.** 16.8 µM

**Q.** And the CC50 ([18]; OVCAR-8, 5 log dose, 48 h, read-out: LC50 (the source's name))?
**A.** > 25 µM

**Q.** What about the activity at 10 µM ([18]; OVCAR-8, single dose 10 μM, read-out: percent cell growth promotion) of the same compound?
**A.** 18.2%

**Q.** And the GI50 ([19]; SK-MEL-28)?
**A.** 3.67 µM

**Q.** What about the IC (TGI) ([19]; SK-MEL-28, read-out: TGI) of the same compound?
**A.** 10.5 µM

**Q.** What about the activity at 10 µM ([19]; SK-MEL-28, read-out: percent cell growth promotion) of the same compound?
**A.** 14.9%

**Q.** And the CC50 ([19]; SK-MEL-28, 5 log dose, 48 h, read-out: LC50 (the source's name))?
**A.** > 25 µM

**Q.** What about the GI50 ([20]; Hs-578T) of the same compound?
**A.** 2.95 µM

**Q.** And the IC (TGI) ([20]; Hs-578T, read-out: TGI)?
**A.** 12.9 µM

**Q.** What about the activity at 10 µM ([20]; Hs-578T, read-out: percent cell growth promotion) of the same compound?
**A.** 26.6%

**Q.** And the CC50 ([20]; HS 578T, 5 log dose, 48 h, read-out: LC50 (the source's name))?
**A.** > 25 µM
